Laboratory results taken from US20260151441A1, “NOVEL USE OF LACTOBACILLUS DELBRUECKII SUBSP. LACTIS STRAIN” (CKD BIO CORPORATION, priority 2022, published 2026).

How the values were obtained:
[1] = Y-maze test in scopolamine-induced cognitive impairment animal model; assay type: in vivo; details: 5 mg/kg
Protocol: The Y-maze test is used to assess short-term memory and momentary spatial perception by evaluating the animal's ability to remember the previously explored arm, with higher memory performance indicated by a lower tendency to re-enter the same arm.
Specifically, scopolamine, which induces memory impairment, was administered together with either saline (vehicle), a known treatment for cognitive impairment or AD (donepezil or decursin), or the strain of the present invention, followed by the Y-maze test.
The Y-maze consists of three arms with dimensions of 40 cm in length, 3 cm in width, and 15 cm in height, with the angles between the arms set at 120°. […]
The control and experimental groups were placed at the center of the Y-maze, where they were allowed to explore the maze for 8 minutes. The movement of each individual was analyzed using EthoVision XT16 (Noldus, USA). The experimental results were obtained as spontaneous alternation behavior (%) and calculated according to the following equation: […]

[2] = Passive avoidance test in scopolamine-induced cognitive impairment animal model; assay type: in vivo, rodents; details: 5 mg/kg, 24 h after shock
Description: The passive avoidance test is a cognitive ability assessment experiment that utilizes the preference of rodents to stay in dark places.
Specifically, saline (as a vehicle), donepezil (a therapeutic agent for cognitive impairment or AD), decursin (a functional ingredient recognized for improving cognitive function), or the strain of the present invention was co-administered with scopolamine which induces memory impairment, followed by the passive avoidance test. […]
The control and experimental groups were placed in chambers consisting of a bright chamber and a dark chamber of the same size. […] After 24 hours, the animals were again placed in the bright chamber, and the time taken to enter the dark chamber was measured for up to 300 seconds to evaluate memory.

SMILES	increase in spontaneous alternation behavior compared to vehicle-treated group (G2) [1] [fold]	memory recovery [2]
CC(C)=CC(=O)O[C@H]1Cc2cc3ccc(=O)oc3cc2OC1(C)C [decursin]	~1.3	about 87%
COc1cc2c(cc1OC)C(=O)C(CC1CCN(Cc3ccccc3)CC1)C2 (stereo not shown) [donepezil]	~1.3	about 74%
